Common to all, as to assay type: functional
The subject of experiment [1] is Mycobacterium tuberculosis.
Experiment [2] concerns Mycobacterium tuberculosis. The source holds these as a separate data set.
Experiment [3] relates to Mycobacterium tuberculosis. This is another data set of the same source.

Our source for the MIC, MIC50 and MIC90 values is ChEMBL document CHEMBL5331057, “A decade of approved first-in-class small molecule orphan drugs: Achievements, challenges and perspectives” (Eur J Med Chem, 2022).

In brackets after ≈: the same amount, converted by molar mass.

In general, MIC refers to the smallest concentration in the dilution series that meets the test's criterion for growth inhibition. A lower MIC goes with a more susceptible organism. The term MIC50 denotes the lowest concentration that inhibits either 50% of growth or 50% of the strains tested, depending on the study. Higher therefore signals lower susceptibility. Usually MIC90 stands for the lowest concentration that inhibits either 90% of growth or 90% of the strains tested, depending on the study.

`COc1nc2ccc(Br)cc2cc1[C@@H](c1ccccc1)[C@@](O)(CCN(C)C)c1cccc2ccccc12` [BEDAQUILINE]: the MIC in experiment [1] worked out at 0.03 µg/mL (≈ 0.054 µM); in experiment [2] it was 0.01 µg/mL (≈ 0.018 µM).
As to `O=[N+]([O-])c1cn2c(n1)OC[C@@H](OCc1ccc(OC(F)(F)F)cc1)C2` [PRETOMANID], in experiment [3], the MIC50 is 0.015 µg/mL (≈ 0.0418 µM) and the MIC90 stood at 0.063 µg/mL (≈ 0.175 µM).
